Reference: patent US11548893B2 (priority 2017, dated 2023)

Legend:
[1] = test system: EBOV (mucin-deleted glycoprotein, VSV pseudotype); assay: microbe, parasite or virus in culture; assay type: cell-based, Zaire ebolavirus; conditions: Zaire ebolavirus, Vero, 24 h, read-out: EC50 Pseudotype Assays EBOV
[2] = test system: BDBV (mucin-deleted glycoprotein, VSV pseudotype); assay: microbe, parasite or virus in culture; assay type: cell-based, Bundibugyo ebolavirus; conditions: Vesicular stomatitis virus, Vero, 24 h, read-out: EC50 Pseudotype Assays BDBV
[3] = test system: SUDV (glycoprotein, VSV pseudotype); assay: microbe, parasite or virus in culture; assay type: cell-based, Sudan ebolavirus; conditions: Vesicular stomatitis virus, Vero, 24 h, read-out: EC50 Pseudotype Assays SUDV
in vitro = conditions: African green monkey, Cytotox CC50
[4] = test system: MARV (full-length glycoprotein, VSV pseudotype); assay: microbe, parasite or virus in culture; assay type: cell-based, Marburg marburgvirus; conditions: Vesicular stomatitis virus, Vero, 24 h, read-out: EC50 Pseudotype Assays MARV

| SMILES | EC50 [1] [nM] | EC50 [2] [nM] | EC50 [3] [nM] | CC50 (in vitro) [nM] | EC50 [4] [nM] |
| --- | --- | --- | --- | --- | --- |
| CCC12CC3CC(C(=O)N4CC[C@H](N)[C@@H](F)C4)(C1)CC(c1ccccc1)(C3)C2 (mixture of isomers) [Example A24] | 203 | 253 | 310 | 11200 | – |
| CCC12CC3CC(C(=O)NC4CCC5(CC4)CNC5)(C1)CC(c1ccccc1)(C3)C2 (racemic) [Example A27] | 134 | 567 | 1750 | 7900 | – |
| CCOCC12CC3CC(C(=O)N[C@H]4CC[C@@H](N)CC4)(C1)CC(c1ccccc1)(C3)C2 (mixture of isomers) [Example A29] | 62 | 790 | > 1000 | 16300 | – |
| CC12CC3CC(C(=O)NC4CC5CNC4C5)(C1)CC(c1ccccc1)(C3)C2 (racemic) [Example A30] | 250 | 700 | 800 | 30000 | 5000 |
| CC12CC3CC(C(=O)NC4CC5CC4CN5)(C1)CC(c1ccccc1)(C3)C2 (racemic) [Example A31] | > 1000 | > 1000 | > 1000 | 26000 | > 1000 |
| CC12CC3CC(C(=O)N4CCCNCC4)(C1)CC(c1ccccc1)(C3)C2 (racemic) [Example A34] | 90 | 120 | 180 | 23600 | – |
| CCC1CNCCN1C(=O)C12CC3CC(C)(C1)CC(c1ccccc1)(C3)C2 (racemic) [Example A36] | 171 | 229 | 130 | 8310 | – |
| CC1(N)CCN(C(=O)C23CC4CC(C)(C2)CC(c2ccccc2)(C4)C3)CC1 (racemic) [Example A37] | 58 | 58.7 | 220 | 10900 | – |
| CC1CN(C(=O)C23CC4CC(C)(C2)CC(c2ccccc2)(C4)C3)CCC1N (racemic) [Example A39] | 46 | 91 | 210 | 13200 | – |
| CC1CC(N)CCN1C(=O)C12CC3CC(C)(C1)CC(c1ccccc1)(C3)C2 (racemic) [Example A40] | 69 | 165 | 450 | 24600 | – |
| CC12CC3CC(C(=O)N4CCC5(CC5N)C4)(C1)CC(c1ccccc1)(C3)C2 (racemic) [Example A41] | 153 | 209 | 680 | 27700 | – |
| CC12CC3CC(C(=O)N4C5CCC4CC(N)C5)(C1)CC(c1ccccc1)(C3)C2 (racemic) [Example A42] | 33 | 190 | 460 | 11800 | – |
| CC12CC3CC(C(=O)N4CCCC(N)CC4)(C1)CC(c1ccccc1)(C3)C2 (racemic) [Example A43] | 147 | 126 | 370 | 13000 | – |
| CC12CC3CC(C(=O)N4CC5(CCNCC5)C4)(C1)CC(c1ccccc1)(C3)C2 (racemic) [Example A44] | 45 | 75 | 245 | 27200 | – |
| CC12CC3CC(C(=O)N4C[C@H]5CNC[C@H]5C4)(C1)CC(c1ccccc1)(C3)C2 (mixture of isomers) [Example A45] | 205 | 301 | 330 | 30600 | – |
| CC12CC3CC(C(=O)N4CCC(N)(CO)CC4)(C1)CC(c1ccccc1)(C3)C2 (racemic) [Example A46] | 41 | 48 | 90 | 12200 | – |
| CC12CC3CC(C(=O)N4CC5(CNC5)C4)(C1)CC(c1ccccc1)(C3)C2 (racemic) [Example A47] | 65 | 238 | 335 | 42300 | – |
| CC12CC3CC(C(=O)N4CCC5(CCNCC5)CC4)(C1)CC(c1ccccc1)(C3)C2 (racemic) [Example A50] | 61 | 90 | 160 | 8780 | – |
| CC12CC3CC(C(=O)N4CCC5(CCN5)CC4)(C1)CC(c1ccccc1)(C3)C2 (racemic) [Example A51] | 157 | 228 | 520 | – | – |
| N#CC12CC3CC(C(=O)N[C@H]4CC[C@H](N)CC4)(C1)CC(c1ccccc1)(C3)C2 (mixture of isomers) [Example A53] | 670 | > 1000 | > 1000 | – | – |
| CC12CC3CC(C(=O)N4CC[C@H](N)C4)(C1)CC(c1ccccc1)(C3)C2 (mixture of isomers) [Example A54] | 120 | 200 | 350 | 11300 | – |
| CC12CC3CC(C(=O)N4CC[C@@H](N)C4)(C1)CC(c1ccccc1)(C3)C2 (mixture of isomers) [Example A55] | 140 | 160 | 370 | 12600 | – |
| CC12CC3CC(C(=O)N4CCC[C@H](N)C4)(C1)CC(c1ccccc1)(C3)C2 (mixture of isomers) [Example A56] | 107 | 75 | 60 | 9090 | – |

| SMILES | EC50 [1] [nM] | EC50 [2] [nM] | EC50 [3] [nM] | CC50 (in vitro) [nM] | EC50 [4] [nM] |
| --- | --- | --- | --- | --- | --- |
| CC12CC3CC(C(=O)N4CCC[C@@H](N)C4)(C1)CC(c1ccccc1)(C3)C2 (mixture of isomers) [Example A57] | 55 | 170 | 220 | 7880 | – |
| CC12CC3CC(C(=O)N[C@@H]4CCCN5CCC[C@H]45)(C1)CC(c1ccccc1)(C3)C2 (mixture of isomers) [Example A59] | 26 | 257 | 400 | 12700 | – |
| CC12CC3CC(C(=O)NC45CCN(CC4)CC5)(C1)CC(c1ccccc1)(C3)C2 (racemic) [Example A60] | 35 | 120 | 330 | 23100 | – |
| CCC12CC3CC(CNC4CCNCC4(C)C)(C1)CC(c1ccccc1)(C3)C2 (centres unmarked) [Example A61] | 800 | 750 | 660 | 1240 | – |
| CCC12CC3CC(CNC4CCNCC4)(C1)CC(c1ccccc1)(C3)C2 (centres unmarked) [Example A62] | 900 | 500 | 540 | 1620 | – |
| CCC12CC3CC(CN[C@H]4CCN[C@@H](C)C4)(C1)CC(c1ccccc1)(C3)C2 (some centres unmarked) [Example A63] | 725 | 435 | 740 | 1470 | – |
| CCC12CC3CC(CN[C@H]4CC[C@H](CN)CC4)(C1)CC(c1ccccc1)(C3)C2 (some centres unmarked) [Example A64] | 610 | 300 | 530 | 1240 | – |
| CC12CC3CC(CN[C@H]4CC[C@H](N)CC4)(C1)CC(c1ccccc1)(C3)C2 (some centres unmarked) [Example A65] | 280 | 175 | 180 | 1620 | 890 |
| CCC12CC3CC(CN[C@H]4CC[C@H](N)CC4)(C1)CC(c1ccccc1)(C3)C2 (some centres unmarked) [Example A66] | 220 | 199 | 490 | 4060 | 970 |
| c1ccc(C23CC4CC(CC(CN5CCNCC5)(C4)C2)C3)cc1 [Example A67] | > 1000 | > 1000 | > 1000 | – | – |
| C[C@]12CC3CC(C(=O)N4CC5(CC(N)C5)C4)(C1)C[C@@](c1ccccc1)(C3)C2 [Example B11] | 64 | 104 | 260 | 23600 | – |
| CC1(C)CN(C(=O)C23CC4C[C@@](C)(C2)C[C@](c2ccccc2)(C4)C3)CC[C@H]1N [Example B12] | 95 | 105 | 200 | 13300 | – |
| C[C@@H]1C[C@H](NC(=O)C23CC4C[C@@](C)(C2)C[C@](c2ccccc2)(C4)C3)CCN1 [Example B14] | 25 | 250 | 730 | 14400 | – |
| CC[C@]12CC3CC(C(=O)N[C@H]4CC[C@H](N)CC4)(C1)C[C@@](c1ccccc1)(C3)C2 [Example B16] | 16 | 57 | 180 | – | 3020 |
| CC1(C)CN(CC23CC4C[C@@](C)(C2)C[C@](c2ccccc2)(C4)C3)CC[C@@H]1N [Example B70] | 628 | 930 | 1020 | – | – |
| CC1(C)CN(CC23CC4C[C@@](C)(C2)C[C@](c2ccccc2)(C4)C3)CC[C@H]1N [Example B71] | 1180 | 1030 | > 1000 | – | – |
| C[C@@]12CC3CC(C(=O)NC4CCNCC4)(C1)C[C@](c1ccccc1)(C3)C2 [Example C1] | 238 | 186 | 685 | 16300 | – |
| CC1(C)CN(C(=O)C23CC4C[C@](C)(C2)C[C@@](c2ccccc2)(C4)C3)CCC1N (some centres unmarked) [Example C8] | 97 | 123 | 550 | 12400 | – |
| C[C@@]12CC3CC(C(=O)N4CCC(N)C5(CC5)C4)(C1)C[C@](c1ccccc1)(C3)C2 (some centres unmarked) [Example C9] | 269 | 150 | 620 | – | – |
| C[C@@]12CC3CC(C(=O)N4CC5(CC(N)C5)C4)(C1)C[C@](c1ccccc1)(C3)C2 [Example C11] | 576 | 315 | 960 | – | – |
| CC[C@@]12CC3CC(C(=O)N[C@H]4CC[C@H](N)CC4)(C1)C[C@](c1ccccc1)(C3)C2 [Example C16] | 353 | 388 | 940 | – | 2970 |
| CC1(C)CN(CC23CC4C[C@](C)(C2)C[C@@](c2ccccc2)(C4)C3)CC[C@@H]1N [Example C70] | > 1000 | 1020 | 1280 | – | – |
| CC1(C)CN(CC23CC4C[C@](C)(C2)C[C@@](c2ccccc2)(C4)C3)CC[C@H]1N [Example C71] | > 1000 | > 1000 | > 1000 | – | – |
